# Source: patent US20160101109A1, “METHOD OF TREATING ARTHRITIS” (AbbVie Inc., priority 2007, published 2016)
# Entries after “also recorded” stand apart in the source; their conditions may differ.
# Experiments:
# activated T lymphocytes = experiment: mixed-lymphocyte reaction (MLR), mouse lymphocyte in vitro activation; assay type: cell-based
# activated B lymphocytes = experiment: lipopolysaccharide stimulation, mouse lymphocyte in vitro activation; assay type: cell-based
# [1] = test system: KLH antigen-specific T cells; experiment: KLH immunization of mice, ex vivo restimulation of T cells; assay type: in vivo, mouse
# Text: Mice were immunized with keyhole limpet hemocyanin (KLH) and treated with EXAMPLE A or vehicle control.
# [2] = test system: DBA/1J (H-2q) mice immunized with collagen; experiment: mouse model of arthritis (collagen immunization, zymosan boost); assay type: in vivo; settings: EXAMPLE A 50 mg/kg per day, dexamethasone 1 mg/kg per day, 3 weeks, p<0.5 versus vehicle control
# Procedure: Also, a standard mouse model of arthritis using DBA/1J (H-2q) mice immunized with collagen and boosted with zymosan 21 days later was used to induce disease. The mice were than treated with EXAMPLE A (50 mg/kg per day), vehicle (with no drug) and dexamethasone (1 mg/kg per day) at the first clinical sign of disease. The mice were then evaluated for mean arthritic score (MAS) and paw swelling for 3 weeks after treatment began.
# mouse ankles = experiment: total bone volume by microcomputed tomography (μCT) of mouse ankles; assay type: in vivo; settings: 1.8-mm section of ankle, resolution 18 μm, FIG. 3
# Procedure: Still also, total bone volumes were measured by microcomputed tomography (μCT) for a 1.8-mm tall section of mouse ankles from the base of the tibia to the tarsal/metatarsal joints at a resolution of 18 μm.
smiles,measurement,setting,value
"CN(C)CC[C@H](CSc1ccccc1)Nc1ccc(S(=O)(=O)NC(=O)c2ccc(N3CCN(Cc4ccccc4-c4ccc(Cl)cc4)CC3)cc2)cc1[N+](=O)[O-] [EXAMPLE A, N-(4-(4-((4′-chloro(1,1′-biphenyl)-2-yl)methyl)piperazin-1-yl)benzoyl)-4-(((1R)-3-(dimethylamino)-1-((phenylsulfanyl)methyl)propyl)amino)-3-nitrobenzenesulfonamide]",proliferation of activated T lymphocytes in a mixed-lymphocyte reaction (MLR),activated T lymphocytes,inhibited in a concentration-dependent manner
same,proliferation of activated B lymphocytes upon lipopolysaccharide stimulation,activated B lymphocytes,inhibited in a concentration-dependent manner
same,responsiveness of T cells spared after treatment,[1]; concavalin A stimulation,responsive to concavalin A
same,proliferation of KLH antigen-specific T cells on restimulation ex vivo,"[1]; mice immunized with KLH and treated, versus vehicle control",significant inhibition of proliferation
same,paw swelling,[2]; FIG. 1,inhibition of arthritis; also recorded: reduction in mouse paw swelling
same,arthritis as assessed by MAS (mean arthritic score),[2]; FIG. 2,inhibition of arthritis
same,mouse bone volume,mouse ankles,increase in mouse bone volume
